Test results published in article PMC3297008, “Novel Marine Phenazines as Potential Cancer Chemopreventive and Anti-Inflammatory Agents” (Marine Drugs, 2012).
Like-named read-outs stand apart in the source and are kept apart here.

Columns and labels:
L1210 cells = system: L1210 cells; set-up: method as in PMID 2753825; details: cited from earlier work
iNOS mRNA expression = iNOS mRNA expression in LPS-treated RAW 264.7 cells (real time quantitative PCR); type: cell-based; details: 50 µM
Text: (§1) Figure 2 Effect of phenazines on COX-2 (black) and iNOS (gray) mRNA expression in RAW 264.7 cells. Total RNA was isolated using the TRIZOL® Reagent method (Invitrogen) from RAW 264.7 cells (2 × 10^5 cells/well) after treatment with samples. cDNA was synthesized using the RT^2 First Strand Kit (C-03, SA Biosciences) protocol. cDNA was used for quantitative real time PCRs with fluorescent Power SyBR® Green PCR master mix (Applied Biosystems), employing GAPDH, iNOS, COX-2 specific primers, and a 7300 Real Time PCR System (Applied Biosystems). The results were derived from two independent RNA preparations employing identical triplicates in each analysis and quantitated using GAPDH as the internal control, following the manufacturer’s instructions. (A) GAPDH standard curve for quantitation of iNOS and COX-2 expression; (B) Levels of COX-2 (black) and iNOS (gray) mRNA expression. The concentration and duration of treatment had no significant effect on the viability of Raw 264.7 cells.
(§2) Total mRNA samples were isolated, and cDNA was amplified with specific primers, using GAPDH as housekeeping gene. LPS induced the expression of COX-2 and iNOS mRNA by approximately 11- and 24-fold, respectively. […]
(§3) RAW 264.7 cells (2 × 10^5 cells/well) were treated with test samples and total RNA was isolated with TRIZOL® Reagent (Invitrogen). […] The results were derived from two independent RNA preparations employing identical triplicates in each analysis and quantified using GAPDH as the internal control, following the manufacturer’s instructions. The fluorescence intensity (Rn) corresponding to the cycle of threshold value (Ct) is used to quantitate a given mRNA, employing the GAPDH standard curve (Figure 3A). The equation Y = −3.9408 X + 31.791 was used to quantify the relative mRNA content, where Y represents the number of cycles corresponding to the Ct (i.e., fluorescence intensity for a given mRNA species), and X represents the log copy number (C0) from which the relative content of mRNA was quantitated. […]

5-α-reductase = system: 5-α-reductase; set-up: method as in PMID 2503481; details: derived from rat prostate; cited from earlier work
COX-2 mRNA expression = COX-2 mRNA expression in LPS-treated RAW 264.7 cells (real time quantitative PCR); type: cell-based; details: 50 µM
Text: as §1, §2, §3

ovine COX-1 = biological target: T1, ovine COX-1 (Ovis aries, UniProt P05979); test: COX-1 inhibition assay (LC-MS/MS of PGE2); type: biochemical
T1 sequence (P05979 25-600): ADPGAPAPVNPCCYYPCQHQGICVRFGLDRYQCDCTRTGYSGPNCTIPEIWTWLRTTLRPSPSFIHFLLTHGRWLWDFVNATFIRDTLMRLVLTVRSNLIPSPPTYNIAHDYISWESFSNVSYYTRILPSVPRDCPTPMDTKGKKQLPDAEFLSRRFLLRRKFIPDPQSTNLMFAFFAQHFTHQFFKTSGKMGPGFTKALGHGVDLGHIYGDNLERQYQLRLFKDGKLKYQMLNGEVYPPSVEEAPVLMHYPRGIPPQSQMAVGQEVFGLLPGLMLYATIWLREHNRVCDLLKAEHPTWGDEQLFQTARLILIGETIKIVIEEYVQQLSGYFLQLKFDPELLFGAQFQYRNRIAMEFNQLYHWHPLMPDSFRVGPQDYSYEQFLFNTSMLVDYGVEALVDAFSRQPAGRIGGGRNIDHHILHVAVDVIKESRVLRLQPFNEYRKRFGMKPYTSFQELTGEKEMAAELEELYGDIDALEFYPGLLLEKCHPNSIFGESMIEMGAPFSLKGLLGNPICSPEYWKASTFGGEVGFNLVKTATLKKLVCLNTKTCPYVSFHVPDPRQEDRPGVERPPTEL
Protocol: Each COX reaction was initiated by adding 20 µL of arachidonic acid in Tris-HCl (pH 8.0) buffer to give a final concentration of 5 µM. The reaction was terminated after 2 min by adding 20 µL of 2.0 M HCl. The surrogate standard PGE2-d4 was added to correct for errors or degradation during sample handling and for variation in injection volume or instrument response during LC-MS/MS. After 30 min, PGE2 and its surrogate standard were extracted from each incubation mixture using 800 µL of hexane/ethyl acetate (50:50, v/v). The organic phase was removed, evaporated to dryness, and reconstituted in 100 µL methanol/water (50:50, v/v) for analysis using LC-MS/MS with an Applied Biosystems AP4000 triple quadrupole mass spectrometer as described previously. The concentration of PGE2 in each sample was measured using LC-MS/MS, and the percent of COX inhibition by each test solution was determined by comparing the amount of PGE2 produced in the experiment with that produced in the negative control incubation. For IC50 value determination, 12 different concentrations of each inhibitor were assayed three times. The IC50 value of each inhibitor toward COX-1 or COX-2 was determined by plotting and analyzing the inhibition curve data using Graph Pad Prism 5 software. The selectivity of each inhibitor was calculated as the ratio of the IC50 values (COX-1/COX-2).

[1] = system: PGE2 production in LPS-induced RAW 264.7 cells; test: LPS-induced PGE2 production in RAW 264.7 cells (ELISA); type: cell-based; details: for IC50: read-out: PGE2 IC50; for inhibition at 50 µM: RAW264.7, read-out: PGE2 % inhibition (50 µM)
Protocol: RAW 264.7 cells (1 × 10^5 cells/well, 200 µL) were incubated in a 96-well culture plate in the presence of 5% CO2 at 37 °C for 24 h. The medium was changed to non-colored DMEM containing 5% FBS, and the cells were treated with various concentrations of compounds for 30 min followed by 1 μg/mL of LPS treatment for 24 h. Cell media were collected, diluted 18-times and used for measuring PGE2. Nunc-Immuno 96-well plates were coated with secondary antibody (goat anti-mouse IgG) affinity purified (Jackson Immuno Research Laboratories). Aliquots of cell media were added to the immune plate with primary PGE2 monoclonal antibody (Cayman Chemical) and a tracer PGE2-acetylcholinesterase (Cayman Chemical) and incubated overnight at room temperature in the dark. The next day, the wells were aspirated, washed, 200 µL of Elman’s reagent was added in each well, and incubated 2–5 h at 37 °C out of direct light until control wells reach an optical density 0.4–0.5. Gentle rotating/shaking was used to decrease the time required for color development. Absorbance was read at 412 nm. The PGE2 concentration of each sample was calculated from a PGE2 standard curve (PGE2 from Cayman Chemical). The percent inhibition as a function of the inhibitor concentration was graphed to determine the IC50 values (concentration at which there was 50% inhibition).

[2] = Mus musculus, RAW264.7, LPS-induced RAW 264.7 cells
[3] = Mus musculus, LPS-induced RAW 264.7 cells

Compound	growth inhibition of L1210 cells in culture (L1210 cells)	suppression of iNOS mRNA expression (iNOS mRNA expression) [%]	inhibition of 5-α-reductase (5-α-reductase)	suppression of COX-2 mRNA expression (COX-2 mRNA expression) [%]	IC50 (ovine COX-1) [µM]	IC50 [1, 2] [µM]	inhibition at 50 µM [1, 3] [%]	IC50 ([1]; LPS-induced RAW 264.7 cells) [µM]
CC1=C(Cn2c3cccc(=O)c-3nc3ccccc32)CCC(C)(C)C1 [Lavanducyanin 3, lavanducyanin]	strongly inhibits the growth	46	competitively inhibits	51	30 ± 1.08	0.63 ± 0.16	80.6 ± 18.4	–
CC1=C(Cn2c3ccc(Br)c(=O)c-3nc3ccccc32)CCC(C)(C)C1 [Phenazine 1]	–	21	–	40	11 ± 0.53	7.5	72.5 ± 16.3	7.15 ± 2.03
CC(C)=CCn1c2ccc(Br)c(=O)c-2nc2ccccc21 [Phenazine 2]	–	43	–	50	5.6 ± 0.61	0.89 ± 0.22	86.9 ± 12.9	–
